# Assay results as given in patent publication US20140137294A1, “GLUCOSINOLATE TRANSPORTER PROTEIN AND USES THEREOF” (UNIVERSITY OF COPENHAGEN, priority 2010, published 2014).
# Assays:
# Type in all cases: cell-based
# AtGTR2 = target: T1, AtGTR2 (Arabidopsis thaliana, UniProt Q9LV10); assay: Uptake of C14-labeled pOHBG in AtGTR2 expressing oocytes in presence of excess competitor; conditions: 50× excess unlabeled competitor, AtGTR2, pH 5
# T1 construct: expressed in transfected cells; host or cells: Xenopus oocytes injected with in vitro transcribed cRNA (vector pNB1u)
# T1 sequence (Q9LV10 1-616): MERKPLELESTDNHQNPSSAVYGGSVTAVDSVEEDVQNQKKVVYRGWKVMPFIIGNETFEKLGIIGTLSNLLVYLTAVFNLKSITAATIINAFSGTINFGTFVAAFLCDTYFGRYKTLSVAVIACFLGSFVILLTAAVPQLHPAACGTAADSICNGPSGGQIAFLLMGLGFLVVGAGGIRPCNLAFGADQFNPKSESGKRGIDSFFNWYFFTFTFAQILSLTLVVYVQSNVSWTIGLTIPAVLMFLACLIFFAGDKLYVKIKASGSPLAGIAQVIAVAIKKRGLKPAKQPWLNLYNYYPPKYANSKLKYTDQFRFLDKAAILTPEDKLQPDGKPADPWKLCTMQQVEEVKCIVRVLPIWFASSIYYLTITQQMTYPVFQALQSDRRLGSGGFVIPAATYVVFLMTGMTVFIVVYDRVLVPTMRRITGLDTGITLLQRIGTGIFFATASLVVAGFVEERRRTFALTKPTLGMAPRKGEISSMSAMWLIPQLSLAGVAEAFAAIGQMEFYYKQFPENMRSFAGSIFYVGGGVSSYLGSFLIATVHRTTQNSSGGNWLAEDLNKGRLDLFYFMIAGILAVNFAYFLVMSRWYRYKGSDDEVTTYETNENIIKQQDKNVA
# Protocol: (§1) FIG. 3: Biochemical analysis of AtGTR1 and 2 mediated GSL transport in Xenopus oocytes. A and B, pH dependence of AtGTR-mediated GSL transport. A, AtGTR2 mediated 4-MTB uptake measured by LC-MS analysis of oocyte extracts, n=3 oocytes. B, AtGTR1 currents induced by 1 mM 4-MTB were measured at different membrane potentials at pH 5 ([…]), pH 6 (♦), and pH 7 (▴). Currents were normalized to the current induced at pH 5 at −60 mV, error bars are SD, n=4 oocytes. C and D, kinetic analysis of AtGTR-mediated glucosinolate transport. […]
# (§2) The substrate specificity investigations were extended to include substrates previously identified for the NRT/PTR transporter family namely di- and tripeptides and nitrate. […] However, perfusing with 1 mM NO3^− did result in currents but these amounted only to 1/10th of currents measured when perfusing with 100 μM 4-MTB (FIG. 3F). […]
# (§3) For assays with radiolabeled substrates, single oocytes were ruptured in 100 μl 10% SDS in 4 ml scintillation vials by shaking for 20-30 minutes. 2.5 ml EcoScint™ scintillation fluid (National Diagnostics) was added, and imported compounds quantified by scintillation counting. For assays with unlabeled substrates, oocyte extracts were analysed by LC-MS. Oocytes were analyzed in batches of 5 oocytes per repetition. […]
# AtGTR1 [1] = target: T2, AtGTR1 (Arabidopsis thaliana, UniProt Q944G5); assay: Substrate-induced currents in voltage-clamped Xenopus oocytes expressing AtGTR1; conditions: 1 mM NO3−, AtGTR1
# T2 construct: A library of Arabidopsis transporters available as full length cDNAs from the RIKEN bioresource center; expressed in transfected cells; host or cells: Xenopus oocytes injected with in vitro transcribed cRNA
# T2 sequence (Q944G5 31-636 limits assumed): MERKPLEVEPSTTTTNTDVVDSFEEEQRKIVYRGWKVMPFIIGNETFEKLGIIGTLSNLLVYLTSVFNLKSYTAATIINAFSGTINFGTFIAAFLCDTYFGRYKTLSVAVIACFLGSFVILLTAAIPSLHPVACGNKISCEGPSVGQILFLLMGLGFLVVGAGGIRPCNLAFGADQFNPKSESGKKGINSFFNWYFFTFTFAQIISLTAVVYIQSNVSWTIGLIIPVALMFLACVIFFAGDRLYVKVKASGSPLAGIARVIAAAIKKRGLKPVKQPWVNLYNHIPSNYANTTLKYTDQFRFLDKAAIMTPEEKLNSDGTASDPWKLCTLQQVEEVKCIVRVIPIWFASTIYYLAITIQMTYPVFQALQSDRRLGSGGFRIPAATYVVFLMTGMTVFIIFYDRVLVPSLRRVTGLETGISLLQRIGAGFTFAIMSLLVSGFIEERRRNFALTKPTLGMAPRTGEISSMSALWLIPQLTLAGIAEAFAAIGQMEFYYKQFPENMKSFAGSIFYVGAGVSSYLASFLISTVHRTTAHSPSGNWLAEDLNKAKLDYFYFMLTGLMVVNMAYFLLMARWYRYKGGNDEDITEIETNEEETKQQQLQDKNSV
# AtGTR1 [2] = target: T2, AtGTR1; assay: Uptake of C14-labeled pOHBG in AtGTR1 expressing oocytes in presence of excess competitor; conditions: 50× excess unlabeled competitor, AtGTR1, pH 5
# Protocol: as §1, §2, §3
compound,measurement,setting,value
"O=[N+]([O-])O [NO3^−, nitrate]",effect on uptake of 40 μM C14-labeled pOHBG,AtGTR2,did not have significant inhibitory effects
same,currents as fraction of currents with 100 μM 4-MTB,AtGTR1 [1],1/10
same,effect on uptake of 40 μM C14-labeled pOHBG,AtGTR1 [2],did not have significant inhibitory effects
